Read-outs that look alike come from different tables or passages of the source.
Tested on: H460 (NRF2 pathway mutant cell line with high AKR1C3 expression)
Experiment: In vitro cell proliferation assay (CellTiter-Glo), H460
Type: cell-based
Settings: Homo sapiens, NCI-H460, 72 h, read-out: H460 Qualified absolute AC50
Excerpt: Cellular Proliferation Assay to Assess Compounds Activity in H460 (NRF2 Pathway Mutant Cell Line with High AKR1C3 Expression) and Hara (NRF2 Pathway Wild Type Cell Line with Low AKR1C3 Expression).
The cell lines A549 and H460 are NRF2 pathway mutant and specifically contain genetic alterations in KEAP1 (A549: G333C, H460: D236H) (Singh A. et al., 2006 PLoS Medicine 3(10) e420). In these cell lines the NRF2 pathway is constitutively active and these cells express high levels of NRF2 protein and NRF2 pathway target gene AKR1C3. […] They have low AKR1C3 expression.
In Vitro Cell Proliferation Assay
Day 1, for H460 800 cells/well or 40 μL of 2×10^4 cells/mL and for Hara 2000 cells/well or 40 μL of 5×10^4 cells/mL medium (RPMI-1640 supplemented with 10% fetal bovine serum and 1% penicillin/streptomycin) were seeded into 384-well tissue culture plates. Day 2, compounds were serially diluted 1:5 to generate 8 point dose response curves and added to cells for a final top concentration of 10 μM. DMSO (1%) control and MG132 (30 μM) controls are added in columns 23 and 24 respectively on each plate for positive and negative control. After incubation for 3 days at 37° C./5% CO2, 30 μl of CellTiter-Glo reagent (Promega) was added and the plates were incubated for 10 min on plate shaker. The amount of luminescence was determined using a Perkin Elmer Envision plate reader. CellTiter-Glo luminescence values of cells treated with DMSO and MG132 controls were used to normalize the data and calculate percentage activity and AC50s of compounds using the Helios Software suite.

[1] = H460 cells, 3 days, CellTiter-Glo, top concentration 10 μM

Row | SMILES | AC50 [1] [nM] | AC50 [nM]
1 | Nc1ccc(CNC(=O)N2CCC3(CC2)C[C@@H](O)c2cc(F)ccc2N3)cc1F (single isomer, unassigned) [Example 170a] | 11 | 
2 | O=C1CC2(CCN(C(=O)NCc3cn[nH]c3)CC2)Nc2ccc(F)cc21 [Example 37, N-((1H-pyrazol-4-yl)methyl)-6′-fluoro-4′-oxo-3′,4′-dihydro-1′H-spiro[piperidine-4,2′-quinoline]-1-carboxamide] | 81 | 
3 | Cc1occc1CNC(=O)N1CCC2(CC1)C[C@@H](O)c1cc(F)ccc1N2 (single isomer, unassigned) [Example 169] | 8 | 
4 | Cc1ccc(CNC(=O)N2CCC3(CC2)CC(=O)c2cc(F)ccc2N3)o1 [Example 1, 6′-fluoro-N-((5-methylfuran-2-yl)methyl)-4′-oxo-3′,4′-dihydro-1′H-spiro[piperidine-4,2′-quinoline]-1-carboxamide] | 143 | 
5 | CC(O)CNC(=O)c1cc(CNC(=O)N2CCC3(CC2)CC(=O)c2cc(F)ccc2N3C)ccc1F (racemic) [Example 88, 6′-fluoro-N-(4-fluoro-3-((2-hydroxypropyl)carbamoyl)benzyl)-1′-methyl-4′-oxo-3′,4′-dihydro-1′H-spiro[piperidine-4,2′-quinoline]-1-carboxamide] | 421 | 
6 | O=C1CC2(CCN(C(=O)NCc3ccc(OP(=O)(O)O)cc3)CC2)Nc2ccc(F)cc21 [Example 4, 4-((6′-fluoro-4′-oxo-3′,4′-dihydro-1′H-spiro[piperidine-4,2′-quinoline]-1-carboxamido)methyl)phenyl dihydrogen phosphate] |  | 6
7 | CN1c2ccc(F)cc2C(=O)CC12CCN(C(=O)NCc1ccc(F)c(NCC3COCCO3)c1)CC2 (stereo not shown) [Example 31, N-(3-(((1,4-dioxan-2-yl)methyl)amino)-4-fluorobenzyl)-6′-fluoro-1′-methyl-4′-oxo-3′,4′-dihydro-1′H-spiro[piperidine-4,2′-quinoline]-1-carboxamide] | 64 | 
8 | CN(C)CCNC(=O)c1cc(CNC(=O)N2CCC3(CC2)CC(=O)c2cc(F)ccc2N3)ccc1F [Example 81, N-(3-((2-(dimethylamino)ethyl)carbamoyl)-4-fluorobenzyl)-6′-fluoro-4′-oxo-3′,4′-dihydro-1′H-spiro[piperidine-4,2′-quinoline]-1-carboxamide] | 352 | 
9 | CN1c2ccc(F)cc2C(=O)CC12CCN(C(=O)NCc1ccc(F)c(NCC(C)(C)C(=O)N3CCOCC3)c1)CC2 [Example 113] | 846 | 
10 | O=C(NCc1ccc(CO)cc1)c1cc(CNC(=O)N2CCC3(CC2)CC(=O)c2cc(F)ccc2N3)ccc1F [Example 32, 6′-fluoro-N-(4-fluoro-3-((4-(hydroxymethyl)benzyl)carbamoyl)benzyl)-4′-oxo-3′,4′-dihydro-1′H-spiro[piperidine-4,2′-quinoline]-1-carboxamide] | 64 | 
11 | COCCNC(=O)c1cc(CNC(=O)N2CCC3(CC2)CC(=O)c2cc(F)ccc2N3C)ccc1F [Example 58, 6′-fluoro-N-(4-fluoro-3-((2-methoxyethyl)carbamoyl)benzyl)-1′-methyl-4′-oxo-3′,4′-dihydro-1′H-spiro[piperidine-4,2′-quinoline]-1-carboxamide] | 181 | 
12 | O=C1CC2(CCN(C(=O)NCc3ccc(Cl)o3)CC2)Nc2ccc(F)cc21 [Example 22, N-((5-chlorofuran-2-yl)methyl)-6′-fluoro-4′-oxo-3′,4′-dihydro-1′H-spiro[piperidine-4,2′-quinoline]-1-carboxamide] | 37 | 
13 | CN1c2ccc(F)cc2C(=O)CC12CCN(C(=O)NCc1ccc(F)c(C(=O)NCC(C)(C)O)c1)CC2 [Example 97, 6′-fluoro-N-(4-fluoro-3-((2-hydroxy-2-methylpropyl)carbamoyl)benzyl)-1′-methyl-4′-oxo-3′,4′-dihydro-1′H-spiro[piperidine-4,2′-quinoline]-1-carboxamide] | 491 | 
14 | O=C(NCC(=O)C1CC1)c1cc(CNC(=O)N2CCC3(CC2)CC(=O)c2cc(F)ccc2N3)ccc1F [Example 100, N-(3-((2-cyclopropyl-2-oxoethyl)carbamoyl)-4-fluorobenzyl)-6′-fluoro-4′-oxo-3′,4′-dihydro-1′H-spiro[piperidine-4,2′-quinoline]-1-carboxamide] | 518 | 
15 | Cc1cc(CNC(=O)N2CCC3(CC2)CC(=O)c2cc(F)ccc2N3)n[nH]1 [Example 72, 6′-fluoro-N-((5-methyl-1H-pyrazol-3-yl)methyl)-4′-oxo-3′,4′-dihydro-1′H-spiro[piperidine-4,2′-quinoline]-1-carboxamide] | 282 | 
16 | Cc1c(CNC(=O)N2CCC3(CC2)CC(=O)c2cc(F)ccc2N3)ccc(F)c1C(N)=O [Example 79, N-(3-carbamoyl-4-fluoro-2-methylbenzyl)-6′-fluoro-4′-oxo-3′,4′-dihydro-1′H-spiro[piperidine-4,2′-quinoline]-1-carboxamide] | 345 | 
17 | Cc1ncc(CNC(=O)c2cc(CNC(=O)N3CCC4(CC3)CC(=O)c3cc(F)ccc3N4)ccc2F)o1 [Example 121, 6′-fluoro-N-(4-fluoro-3-(((2-methyloxazol-5-yl)methyl)carbamoyl)benzyl)-4′-oxo-3′,4′-dihydro-1′H-spiro[piperidine-4,2′-quinoline]-1-carboxamide] | 1080 | 
18 | Cc1occc1CNC(=O)N1CCC2(CC1)CC(=O)c1cc(F)ccc1N2 [Example 59, 6′-fluoro-N-((2-methylfuran-3-yl)methyl)-4′-oxo-3′,4′-dihydro-1′H-spiro[piperidine-4,2′-quinoline]-1-carboxamide] | 185 | 
19 | O=C1CC2(CCN(C(=O)NCc3ccoc3C(F)(F)F)CC2)Nc2ccc(F)cc21 [Example 96, 6′-fluoro-4′-oxo-N-((2-(trifluoromethyl)furan-3-yl)methyl)-3′,4′-dihydro-1′H-spiro[piperidine-4,2′-quinoline]-1-carboxamide] | 489 | 
20 | CN1CCN(C(=O)C(C)(C)CNc2cc(CNC(=O)N3CCC4(CC3)CC(=O)c3cc(F)ccc3N4C)ccc2F)CC1 [Example 44, N-(3-((2,2-dimethyl-3-(4-methylpiperazin-1-yl)-3-oxopropyl)amino)-4-fluorobenzyl)-6′-fluoro-1′-methyl-4′-oxo-3′,4′-dihydro-1′H-spiro[piperidine-4,2′-quinoline]-1-carboxamide] | 99 | 
21 | CN1c2ccc(F)cc2C(=O)CC12CCN(C(=O)NCc1ccc(F)c(NCCC(=O)O)c1)CC2 [Example 148, 3-((2-fluoro-5-((6′-fluoro-1′-methyl-4′-oxo-3′,4′-dihydro-1′H-spiro[piperidine-4,2′-quinoline]-1-carboxamido)methyl)phenyl)amino)propanoic acid] | 4930 | 
22 | Cc1ccc(CNC(=O)N2CCC3(CC2)CC(=O)c2cc(F)ccc2N3C)o1 [Example 7, 6′-fluoro-1′-methyl-N-((5-methylfuran-2-yl)methyl)-4′-oxo-3′,4′-dihydro-1′H-spiro[piperidine-4,2′-quinoline]-1-carboxamide] | 10 | 
23 | CCc1noc(C)c1CNC(=O)N1CCC2(CC1)CC(=O)c1cc(F)ccc1N2 [Example 106, N-((3-ethyl-5-methylisoxazol-4-yl)methyl)-6′-fluoro-4′-oxo-3′,4′-dihydro-1′H-spiro[piperidine-4,2′-quinoline]-1-carboxamide] | 598 | 
24 | Cc1cc(CNC(=O)N2CCC3(CC2)CC(=O)c2cc(F)ccc2N3)c(C(F)(F)F)o1 [Example 127, 6′-fluoro-N-((5-methyl-2-(trifluoromethyl)furan-3-yl)methyl)-4′-oxo-3′,4′-dihydro-1′H-spiro[piperidine-4,2′-quinoline]-1-carboxamide] | 1430 | 
25 | C#CCNC(=O)c1cc(CNC(=O)N2CCC3(CC2)CC(=O)c2cc(F)ccc2N3)ccc1F [Example 128, 6′-fluoro-N-(4-fluoro-3-(prop-2-yn-1-ylcarbamoyl)benzyl)-4′-oxo-3′,4′-dihydro-1′H-spiro[piperidine-4,2′-quinoline]-1-carboxamide] | 1480 | 
26 | Cc1cc(CNC(=O)N2CCC3(CC2)CC(=O)c2cc(F)ccc2N3)c(C)o1 [Example 110, N-((2,5-dimethylfuran-3-yl)methyl)-6′-fluoro-4′-oxo-3′,4′-dihydro-1′H-spiro[piperidine-4,2′-quinoline]-1-carboxamide] | 700 | 
27 | O=C(NC1CC(O)C1)c1cc(CNC(=O)N2CCC3(CC2)CC(=O)c2cc(F)ccc2N3)ccc1F (stereo not shown) [Example 60, 6′-fluoro-N-(4-fluoro-3-((3-hydroxycyclobutyl)carbamoyl)benzyl)-4′-oxo-3′,4′-dihydro-1′H-spiro[piperidine-4,2′-quinoline]-1-carboxamide] | 198 | 
28 | CN1c2ccc(F)cc2C(=O)CC12CCN(C(=O)NCc1ccc(F)c(NCCN3CCCC3=O)c1)CC2 [Example 90, 6′-fluoro-N-(4-fluoro-3-((2-(2-oxopyrrolidin-1-yl)ethyl)amino)benzyl)-1′-methyl-4′-oxo-3′,4′-dihydro-1′H-spiro[piperidine-4,2′-quinoline]-1-carboxamide] | 443 | 

Reference: patent US11970497B2, “Tricyclic AKR1C3 dependent KARS inhibitors” (Novartis AG, priority 2019, dated 2024)
